In US20250268958A1, “COMMENSAL BACTERIA PROMOTE ENDOCRINE-RESISTANCE IN PROSTATE CANCER VIA ANDROGEN BIOSYNTHESIS” (FONDAZIONE PER L'ISTITUTO ONCOLOGICO DI RICERCA (IOR), priority 2021, published 2025):

What was measured:
[1] = tested on: Ruminococcaceae family; experiment: Gut microbiota of mCRPC patients stratified by ADT regimen (whole genome metagenome); assay type: in vivo, human; conditions: Abiraterone vs Enzalutamide
Description: FIG. 16—Different ADT regimens alter gut microbiota composition. (A) Pie chart representing the number of CRPC patients receiving Enzalutamide, Abiraterone or other treatment (Apalutamide, Docetaxel, Cabazitaxel or no active treatment) at the moment of the rectal swab. […] (C) Patients treated with enzalutamide (n=14) and apalutamide (n=1) were stratified according to the circulating testosterone level (≤10 ng/dL or >10 ng/dL). Pie charts show, within each group, the fraction of patients having Ruminococcus DSM_10044 in their gut microbiota.
Collection of patient feces. Patients with hormone-sensitive (HSPC) and metastatic CRPC consented to the analysis of their rectal swabs. […]
Whole genome metagenome analysis of patient feces. […] DNA was analyzed by Qubit (Invitrogen, Thermo Fisher Scientific, Waltham, USA) and integrity was checked by agarose gel electrophoresis.
Illumina TruSeq DNA libraries were prepared using the TruSeq nano DNA Library preparation kit (Illumina, San Diego, USA) according to the manufacturer's instructions. […] The final libraries were quantified using a Quant-iT™ PicoGreen™ ds DNA Assay Kit (Thermo Fisher Scientific, Waltham, USA) and equimolarly pooled prior to sequencing. […] Quality of the reads in fastq format was checked with the software FastQC (version 0.11.8). […]

[2] = tested on: Ruminococcaceae family; experiment: Gut microbiota composition in TRAMP-C1 mice under bipolar androgen therapy; assay type: in vivo, mouse; conditions: high dose of testosterone vs vehicle
Description: FIG. 7—Pten^pc−/− and LNCaP castrated mice harbor a peculiar gut microbiota. […] (E) qPCR showing the abundance of R. gnavus and B. acidifaciens in feces of LNCaP mice that were either sham-operated (n=4), CTX (n=6), CTX+enzalutamide (n=6) at 85 days. TRAMP-C1 mouse models were treated with either vehicle or high dose of testosterone as per bipolar androgen therapy. (F) Tumor volume (vehicle n=5, high testosterone n=5). (G) Serum testosterone levels (vehicle n=5, high-testosterone n=5). (H) Heatmap representing differentially abundant bacteria (FDR<0.05) between mice injected with vehicle or high testosterone-dose (vehicle n=4, high-testosterone n=4). […]
Pten^pc−/− Murine 16S rDNA sequencing analysis and bacteria qPCR. […] DNA was extracted using a GNOME DNA isolation kit (MP) following the protocol described in (J. P. Furet et al., Comparative assessment of human and farm animal faecal microbiota using real-time quantitative PCR. FEMS Microbiol Ecol 68, 351-362 (2009)). […] In short, DNA concentration and quality were evaluated using NanoDrop 2000. […] PCR products were visualized on an agarose gel then quantified by qPCR using the KAPA Library Quantification Kit (KAPA Biosystems, KK4824). […] The pooled library was purified using the Agencourt AMPure XP kit (Beckman Coulter, A63880) and quantified with the same method prior to sequence using paired-end (read length=300 bases) on Illumina MiSeq. […]

[3] = tested on: TRAMP-C1 cells; experiment: TRAMP-C1 allograft tumor model, castrated (CTX) or sham-operated mice; conditions: high dose of testosterone vs vehicle
Description: C57BL6/N mice were challenged s.c. with 2.5×10^6 TRAMP-C1 cells. When tumors became palpable, mice were either castrated (CTX) or sham-operated (sham). After surgery, mice were either administered normal drinking water or antibiotic cocktail (ABX: neomycin 1 g/L, ampicillin 1 g/L, vancomycin 0.5 g/L and metronidazole 2 mg/mouse every other day). (A) Tumor volume (Sham n=14, Sham ABX n=4, CTX n=20, CTX ABX n=10) and (B) survival curve. […] Statistical analysis was performed with: (A), (F), (G) two-way ANOVA and Sidak's multiple comparison test; (B), (H), (1) Mantel Cox test; (C), (E), (K) unpaired two-sided Student's t-test. NS, not significant; *P<0.05; **P<0.01; ***P<0.001; ****P<0.0001.
Mice. […] 4 weeks old male C57BL6/N and NOD/SCID mice were purchased from Charles River (Calco, Italy) and acclimatized for four weeks before experimentation.

SMILES	expansion of Ruminococcaceae family in gut microbiota [1]	abundance of Ruminococcaceae family [2]	tumor volume [3]
CNC(=O)c1ccc(N2C(=S)N(c3ccc(C#N)c(C(F)(F)F)c3)C(=O)C2(C)C)cc1F [Enzalutamide]	presented an expansion of Ruminococcaceae family	–	–
C[C@]12CC[C@H]3[C@@H](CCC4=CC(=O)CC[C@@]43C)[C@@H]1CC[C@@H]2O [bipolar androgen therapy, Testosterone]	–	decreased the abundance of Ruminococcaceae family	promoted tumor inhibition
